Data from patent US20260232625A1, “NOVEL DECURSIN DERIVATIVE AND USE THEREOF FOR PREVENTING OR TREATING NON-SMALL CELL LUNG CANCER” (JAEIN R&P INC., priority 2023, published 2026).
“Also recorded” adds a separate entry of the source.

Legend:
[1] = test system: A549; assay: MTT cytotoxicity evaluation against A549 cells; assay type: cell-based, human; conditions: for IC50: Homo sapiens, A549, 48 h, 48 hours
Procedure: (§1) A549 (human lung cancer cells) were obtained from the American Type Culture Collection (ATCC) and used. The cells were cultured in a medium containing 10% FBS, 1% penicillin (10,000 units/mL), and streptomycin (10 mg/mL), or in Dulbecco's Modified Eagle's Medium (DMEM), at 37° C. under 5% CO2 conditions.
To measure cytotoxicity, an MTT assay was used. Specifically, A549 cells cultured according to Experimental Example 1 were seeded into a 96-well plate at a density of 2.5×10^4 cells/mL in 100 μL, and incubated for 24 hours. Thereafter, the cells were treated with either the compounds prepared according to Examples 1 to 27 or, as comparative agents, decursin or docetaxel. The prepared compounds and decursin were each administered to the A549 cell line at concentrations of 0 μM (untreated), 12.5 μM, 25 μM, 50 μM, 100 μM, and 200 μM, while docetaxel was administered at concentrations of 0 nM (untreated), 0.1 nM, 1 nM, 10 nM, 100 nM, and 1,000 nM, followed by incubation for an additional 48 hours. Then, 20 μL of MTT solution was added (Method 1). Alternatively, the compounds prepared according to Examples 28 to 30, the compound of Example 5 as a reference compound or, as comparative agents, decursin or docetaxel, were used. The prepared compounds, the compound of Example 5, and decursin were each administered at concentrations of 0 μM (untreated), 3.125 μM, 6.25 μM, 12.5 μM, 25 μM, and 50 μM, while docetaxel was administered at concentrations of 0 nM (untreated), 0.6 nM, 1.25 nM, 2.5 nM, 5 nM, and 10 nM, and treated in the same manner as described in Method 1 (Method 2). The cells treated with MTT solution were incubated for 2 hours, the medium was removed, and the formazan blue crystals formed by the cells were treated with an MTT lysis buffer, followed by incubation in a cell incubator for 24 hours. The MTT lysis buffer was prepared by mixing N,N-dimethylformamide with water in a 1:1 ratio to give a solution containing 20% SIDS (sodium dodecyl sulfate) at the final concentration. The optical density at 590 nm was measured using a microplate reader (FIGS. 1a to 1d). Based on the measured values, the cytotoxicity (IC50) against A549 was calculated, and the results are disclosed in Table 1 together with the structural formulae.

[2] = test system: A549 cells; assay: Co-administration with gefitinib, MTT cell viability and synergy score in A549 cells; assay type: cell-based, human; conditions: for cytotoxicity against A549 on co-administration with gefitinib: gefitinib 1.25-20 μM plus compound 6.25-100 μM, compared with decursin plus gefitinib, FIG. 2
Procedure: as §1
Nevertheless, the compound of Example 5, when used as a single agent, was somewhat limited in its efficacy, and therefore its potential as a co-administration agent with existing non-small cell lung cancer therapeutic agents was examined. To this end, gefitinib (Iressa) was selected, and the compound of Example 5, together with decursin for comparison, was co-administered to A549 cells, and the cytotoxicity thereof was measured. To further evaluate dose dependency, gefitinib was administered at concentrations of 0 μM (untreated), 1.25 μM, 2.5 μM, 5 μM, 10 μM, and 20 μM, in combination with either decursin or the […], each administered at concentrations of 0 μM (untreated), 6.25 μM, 12.5 μM, 25 μM, 50 μM, and 100 μM. The relative cell viability was measured by setting the viability of the untreated group, i.e., cells not treated with either gefitinib or decursin/decursin derivative, to 100%, and the results are shown in FIG. 2. Cell viability was determined using an MTT assay. […] In particular, as the concentration of the decursin derivative increased to 12.5 μM or higher, the difference in cell-killing effect became more pronounced.
Furthermore, the synergy score of the cytotoxicity of the combination of gefitinib with decursin or with the decursin derivative compound of Example 5 against A549 cells was calculated using the Synergyfinder webtool, and the results are shown in FIG. 3. A calculated synergy score of 10 or more was considered to indicate a synergistic effect, a score between −10 and 10 was considered to indicate an additive effect, and a score below −10 was considered to indicate an antagonistic effect.

[3] = Method 2 (marked *): 3.125-50 μM

Structure (SMILES)	IC50 ([1]; Method 1: 12.5-200 μM)	IC50 [1, 3]	cell-killing effect against human lung cancer cell line A549 compared to decursin ([1]; single agent)	synergy score of cytotoxicity against A549 ([2]; 10 μM gefitinib plus 6.25 μM compound, Synergyfinder webtool, score of 10 or more = synergistic)	cytotoxicity against A549 on co-administration with gefitinib [2]	cytotoxicity against A549 on co-administration with gefitinib ([2]; listed as compound of Formula 2)
CC1(C)Oc2cc3oc(=O)ccc3cc2C[C@@H]1OC(=O)/C=C/c1ccoc1 [Example 5, (S,E)-2,2-dimethyl-8-oxo-2,3,4,8-tetrahydropyrano[3,2-g]chromen-3-yl 3-(furan-3-yl)acrylate]	30.3 µM	7.88 µM	superior cell-killing effect; also recorded: most potent effect	~15	superior to that observed with co-administration of decursin and gefitinib	synergistic cell-killing effect
CN(C)c1ccc(/C=C/C(=O)O[C@H]2Cc3cc4ccc(=O)oc4cc3OC2(C)C)cc1 [Example 30, (S,E)-2,2-dimethyl-8-oxo-2,3,4,8-tetrahydropyrano[3,2-g]chromen-3-yl 3-(4-(dimethylamino)phenyl)acrylate]	–	151 µM	–	–	–	–
